Test results reported in ChEMBL document CHEMBL1201862, “PubChem BioAssay data set” (2004).
Activity calls are given as the source filed them.

Tests used:
Troponin, cardiac muscle = Troponin, cardiac muscle (Homo sapiens, UniProt P19429+P45379+P63316); experiment: Fluorescence-based biochemical high throughput dose response assay for activators of the calcium sensitivity of cardiac Regulated Thin Filaments (RTF). [Related pubchem assays (depositor defined):AID493008, AID493018, AID504382, AID504383]; type: protein-complex assay
Paired box protein Pax-8 = Paired box protein Pax-8 (Homo sapiens, UniProt Q06710); experiment: PAX8 transcriptional activity inhibition in RMG-I – RMG-I cells, luciferase, cherry-pick, dose response (AID 687027); type: functional, cell-based;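 also: luciferase reporter driven by Pax8 target thyroperoxidase promoter measured by SteadyGlo luminescence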
HeLa = experiment: viability loss in HeLa cells – cell-based, 24 h, cherry-picked samples, cytotoxicity control, dose response (AID 504726); type: functional; settings: Homo sapiens;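 also: potency for cytotoxicity as loss of luminescence signal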
[1] = Luminescence Cell-Based Dose Response HTS to Identify Inhibitors of 5'UTR Stem-Loop Driven Prion Protein mRNA Translation in H4 Neuroglioblastoma Cells. [Related pubchem assays: 1827 (Project Summary), 1813 (Primary HTS)]; type: functional
[2] = alpha-synuclein stem-loop luciferase translation blockers – H4 neuroglioma cells, luminescence, confirmation (AID 1988); type: functional, cell-based
[3] = luciferase reporter signal suppression in cells – H4 neuroglioma cells, luminescence, dose response (AID 1990); type: functional, cell-based
Protein S100-A4 = Protein S100-A4 (Homo sapiens, UniProt P26447); experiment: human S100A4 peptide interaction inhibition curves – biochemical, fluorescence polarization, cherry-picked hits, dose response (AID 687001); type: functional
ORF 73 = ORF 73 (Human herpesvirus 8, UniProt O40947); experiment: KSHV LANA DNA-binding disruption – biochemical, fluorescence polarization, cherry-picked samples, dose response (AID 504725); set-up: species or system Human gammaherpesvirus 8;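 also: fluorescence polarization of a labeled DNA duplex reporting LANA DNA binding; potency is for inhibitors that block LANA binding to the DNA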
[4] = biological target: T1, Polyadenylate-binding protein 1 (Homo sapiens, UniProt P11940); experiment: PABP inhibition in translation initiation, SAR follow-up (AID 435018); type: functional
[5] = biological target: Eukaryotic translation initiation factor 4H (Homo sapiens, UniProt Q15056); experiment: inhibitors of translation initiation factor eIF4H – SAR follow-up (AID 435011); type: functional
[6] = biological target: NACHT, LRR and PYD domains-containing protein 1 (Homo sapiens, UniProt Q9C000); experiment: NALP1 inhibitors in yeast, dose response, luminescent (AID 488860); type: functional
Saccharomyces cerevisiae = experiment: S. cerevisiae Caspase-1/ASC signal blockers IC50, NALP1 inhibitor project selectivity test (AID 488863); type: functional, organism-based
[7] = biological target: T2, E3 ubiquitin-protein ligase XIAP (Homo sapiens, UniProt P98170); experiment: Counter Screen using XIAP-Bir3 for Chemical Antagonists of Bir1/2 domains of IAP-family anti-apoptotic proteins. [Related pubchem assays (depositor defined):AID1018, AID1449, AID1514, AID1638, AID1749, AID1750, AID488957, AID488963]
[8] = biological target: T2, E3 ubiquitin-protein ligase XIAP; experiment: small molecules displacing peptide from XIAP – biochemical, IAP family, fluorescence polarization (AID 1018); type: functional
[9] = biological target: T3, Sentrin-specific protease 1 (Homo sapiens, UniProt Q9P0U3); experiment: SENP1 catalytic domain blockers, concentration series – biochemical, kinetic FRET, dose response (AID 651697); type: functional; settings: read-out: IC50_Mean
T3 sequence (Q9P0U3 whole entry): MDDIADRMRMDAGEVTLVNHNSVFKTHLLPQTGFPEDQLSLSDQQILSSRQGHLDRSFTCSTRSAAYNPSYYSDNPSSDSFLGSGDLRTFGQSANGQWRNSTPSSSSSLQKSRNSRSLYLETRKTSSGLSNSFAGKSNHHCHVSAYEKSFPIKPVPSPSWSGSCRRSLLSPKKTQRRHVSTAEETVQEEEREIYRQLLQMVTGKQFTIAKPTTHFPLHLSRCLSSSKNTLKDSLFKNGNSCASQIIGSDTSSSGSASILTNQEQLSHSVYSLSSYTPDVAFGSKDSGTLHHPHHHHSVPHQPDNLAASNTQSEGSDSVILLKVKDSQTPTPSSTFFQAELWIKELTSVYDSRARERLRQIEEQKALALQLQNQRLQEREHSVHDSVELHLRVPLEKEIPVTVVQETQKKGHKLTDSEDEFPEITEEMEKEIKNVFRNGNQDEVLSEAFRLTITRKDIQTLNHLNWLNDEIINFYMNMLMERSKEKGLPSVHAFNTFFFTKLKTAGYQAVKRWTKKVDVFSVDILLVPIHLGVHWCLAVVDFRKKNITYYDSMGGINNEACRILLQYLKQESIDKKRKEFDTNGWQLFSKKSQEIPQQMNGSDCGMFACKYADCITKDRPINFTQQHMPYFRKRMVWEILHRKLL

[10] = biological target: T1, Polyadenylate-binding protein 1; experiment: MLLE domain peptide-binding blockers, IC50 – biochemical, fluorescence polarization, FITC-PAM2 peptide, dose response (AID 602259); type: functional; settings: read-out: IC50_Mean
[11] = biological target: T1, Polyadenylate-binding protein 1; experiment: MLLE binding blockers, Cy5 peptide tracer – biochemical, fluorescence polarization, Cy5-PAM2 peptide, secondary, miRNA deadenylation inhibitor project, dose response (AID 602260); type: functional; settings: read-out: IC50_Mean
Protein Rev = Protein Rev (Human immunodeficiency virus type 1 group M subtype B (isolate HXB2)(HIV-1), UniProt P04618); experiment: blockers of HIV Rev/RRE RNA complex – biochemical, fluorescence polarization, HIV-1, dose response (AID 434976); set-up: species or system Human immunodeficiency virus 1
[12] = biological target: T3, Sentrin-specific protease 1; experiment: Dose response confirmation of small molecule inhibitors of the catalytic domain of the SUMO protease, SENP1 in a FRET assay.; type: functional; settings: read-out: IC50_Mean
[13] = biological target: Female germline-specific tumor suppressor gld-1 (Caenorhabditis elegans, UniProt Q17339); experiment: blockers of GLD-1/TGE RNA complex formation – biochemical, fluorescence polarization, C. elegans, dose response (AID 2802);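 also: fluorescence polarization of labeled TGE RNA bound by purified gld-1 protein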
Sequence of Female germline-specific tumor suppressor gld-1 (Q17339 whole entry): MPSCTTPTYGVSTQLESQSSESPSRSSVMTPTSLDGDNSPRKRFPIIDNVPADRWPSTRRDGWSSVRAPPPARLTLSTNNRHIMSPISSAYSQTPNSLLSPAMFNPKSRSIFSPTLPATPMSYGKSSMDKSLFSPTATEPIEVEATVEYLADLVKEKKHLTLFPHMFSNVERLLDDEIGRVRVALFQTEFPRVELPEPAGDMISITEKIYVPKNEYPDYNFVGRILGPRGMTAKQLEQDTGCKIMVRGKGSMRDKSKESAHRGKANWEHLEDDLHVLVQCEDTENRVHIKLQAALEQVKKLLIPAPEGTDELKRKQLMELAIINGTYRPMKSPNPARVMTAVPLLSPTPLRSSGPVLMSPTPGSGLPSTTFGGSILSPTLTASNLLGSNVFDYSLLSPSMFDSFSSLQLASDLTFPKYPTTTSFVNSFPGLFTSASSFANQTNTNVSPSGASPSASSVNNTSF

T1 sequence (P11940 whole entry): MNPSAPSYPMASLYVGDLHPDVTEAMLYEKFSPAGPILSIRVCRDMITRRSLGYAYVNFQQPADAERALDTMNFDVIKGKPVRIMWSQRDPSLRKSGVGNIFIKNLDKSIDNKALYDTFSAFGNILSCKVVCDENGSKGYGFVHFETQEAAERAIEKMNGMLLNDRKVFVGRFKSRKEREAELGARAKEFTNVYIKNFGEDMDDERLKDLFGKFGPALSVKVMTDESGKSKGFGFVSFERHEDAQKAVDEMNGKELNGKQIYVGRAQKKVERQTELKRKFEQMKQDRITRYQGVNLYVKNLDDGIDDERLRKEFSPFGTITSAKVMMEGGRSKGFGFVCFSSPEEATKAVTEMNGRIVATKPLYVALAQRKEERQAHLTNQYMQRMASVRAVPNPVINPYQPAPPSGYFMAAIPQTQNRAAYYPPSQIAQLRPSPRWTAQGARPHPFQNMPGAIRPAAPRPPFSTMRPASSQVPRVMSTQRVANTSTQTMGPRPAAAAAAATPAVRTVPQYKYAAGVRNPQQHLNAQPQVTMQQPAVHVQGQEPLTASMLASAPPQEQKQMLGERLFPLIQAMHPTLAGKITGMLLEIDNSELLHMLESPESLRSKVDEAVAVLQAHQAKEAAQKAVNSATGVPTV
T2 sequence (P98170 whole entry): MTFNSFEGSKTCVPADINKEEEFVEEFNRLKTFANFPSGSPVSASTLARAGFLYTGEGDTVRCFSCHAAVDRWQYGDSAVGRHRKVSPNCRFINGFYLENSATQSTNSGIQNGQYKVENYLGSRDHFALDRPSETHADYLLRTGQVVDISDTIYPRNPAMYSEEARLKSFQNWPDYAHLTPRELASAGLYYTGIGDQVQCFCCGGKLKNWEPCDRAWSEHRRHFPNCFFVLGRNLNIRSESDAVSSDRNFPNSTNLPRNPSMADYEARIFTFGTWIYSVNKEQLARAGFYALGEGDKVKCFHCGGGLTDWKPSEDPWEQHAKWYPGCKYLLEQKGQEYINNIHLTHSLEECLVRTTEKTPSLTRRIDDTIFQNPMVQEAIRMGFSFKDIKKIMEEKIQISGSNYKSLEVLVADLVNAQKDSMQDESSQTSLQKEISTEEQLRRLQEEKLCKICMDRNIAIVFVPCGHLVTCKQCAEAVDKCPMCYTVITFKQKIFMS
Sequence of Protein S100-A4 (P26447 whole entry): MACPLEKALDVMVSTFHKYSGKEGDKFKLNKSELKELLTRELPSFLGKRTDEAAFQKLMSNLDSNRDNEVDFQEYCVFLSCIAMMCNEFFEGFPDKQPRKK
Sequence of Protein Rev (P04618 whole entry, the tested form may be a part): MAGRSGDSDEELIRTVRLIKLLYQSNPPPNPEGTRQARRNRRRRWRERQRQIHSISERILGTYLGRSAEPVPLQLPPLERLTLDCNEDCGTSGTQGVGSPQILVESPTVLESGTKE
Sequence of Paired box protein Pax-8 (Q06710 whole entry): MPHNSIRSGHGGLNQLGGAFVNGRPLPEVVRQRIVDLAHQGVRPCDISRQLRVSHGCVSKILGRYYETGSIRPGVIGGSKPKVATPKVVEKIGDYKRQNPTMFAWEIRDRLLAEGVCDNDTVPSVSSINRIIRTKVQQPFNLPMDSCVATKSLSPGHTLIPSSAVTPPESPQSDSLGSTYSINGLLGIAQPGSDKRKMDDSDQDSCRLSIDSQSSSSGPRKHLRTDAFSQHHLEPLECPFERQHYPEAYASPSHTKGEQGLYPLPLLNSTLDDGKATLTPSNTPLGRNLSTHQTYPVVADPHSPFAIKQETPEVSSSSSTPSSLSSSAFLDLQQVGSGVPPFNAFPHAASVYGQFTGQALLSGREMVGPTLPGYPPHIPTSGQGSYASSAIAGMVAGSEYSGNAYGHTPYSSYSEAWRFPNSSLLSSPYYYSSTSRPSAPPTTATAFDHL
Sequence of ORF 73 (O40947 whole entry): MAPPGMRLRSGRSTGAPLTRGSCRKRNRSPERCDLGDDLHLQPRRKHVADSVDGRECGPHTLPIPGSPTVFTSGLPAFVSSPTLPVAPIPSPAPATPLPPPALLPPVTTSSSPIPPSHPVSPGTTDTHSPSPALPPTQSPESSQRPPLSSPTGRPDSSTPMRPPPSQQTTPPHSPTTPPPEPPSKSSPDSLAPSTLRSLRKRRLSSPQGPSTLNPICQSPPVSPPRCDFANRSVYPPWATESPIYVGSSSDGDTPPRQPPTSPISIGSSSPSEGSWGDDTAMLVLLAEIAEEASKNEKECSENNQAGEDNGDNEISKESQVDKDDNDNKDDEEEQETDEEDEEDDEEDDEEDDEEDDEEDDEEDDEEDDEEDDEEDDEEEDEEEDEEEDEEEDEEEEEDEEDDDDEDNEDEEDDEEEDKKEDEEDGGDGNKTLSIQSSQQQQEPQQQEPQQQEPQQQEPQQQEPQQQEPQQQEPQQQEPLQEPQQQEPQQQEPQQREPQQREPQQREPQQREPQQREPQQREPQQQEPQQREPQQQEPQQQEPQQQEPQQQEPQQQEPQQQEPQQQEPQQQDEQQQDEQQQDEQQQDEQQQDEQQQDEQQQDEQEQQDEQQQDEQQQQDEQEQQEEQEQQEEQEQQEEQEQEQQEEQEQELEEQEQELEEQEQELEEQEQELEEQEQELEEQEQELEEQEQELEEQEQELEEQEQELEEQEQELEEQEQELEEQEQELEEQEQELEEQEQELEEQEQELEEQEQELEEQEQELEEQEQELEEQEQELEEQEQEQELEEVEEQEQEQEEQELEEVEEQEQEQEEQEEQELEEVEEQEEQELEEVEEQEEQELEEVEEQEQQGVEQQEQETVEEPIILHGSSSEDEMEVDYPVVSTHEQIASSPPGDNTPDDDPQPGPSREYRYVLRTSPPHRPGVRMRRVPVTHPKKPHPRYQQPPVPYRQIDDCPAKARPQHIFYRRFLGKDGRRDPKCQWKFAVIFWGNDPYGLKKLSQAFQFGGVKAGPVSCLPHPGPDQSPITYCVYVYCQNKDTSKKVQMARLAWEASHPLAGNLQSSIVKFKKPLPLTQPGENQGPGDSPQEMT
Sequence of NACHT, LRR and PYD domains-containing protein 1 (Q9C000 1-1212 limits assumed): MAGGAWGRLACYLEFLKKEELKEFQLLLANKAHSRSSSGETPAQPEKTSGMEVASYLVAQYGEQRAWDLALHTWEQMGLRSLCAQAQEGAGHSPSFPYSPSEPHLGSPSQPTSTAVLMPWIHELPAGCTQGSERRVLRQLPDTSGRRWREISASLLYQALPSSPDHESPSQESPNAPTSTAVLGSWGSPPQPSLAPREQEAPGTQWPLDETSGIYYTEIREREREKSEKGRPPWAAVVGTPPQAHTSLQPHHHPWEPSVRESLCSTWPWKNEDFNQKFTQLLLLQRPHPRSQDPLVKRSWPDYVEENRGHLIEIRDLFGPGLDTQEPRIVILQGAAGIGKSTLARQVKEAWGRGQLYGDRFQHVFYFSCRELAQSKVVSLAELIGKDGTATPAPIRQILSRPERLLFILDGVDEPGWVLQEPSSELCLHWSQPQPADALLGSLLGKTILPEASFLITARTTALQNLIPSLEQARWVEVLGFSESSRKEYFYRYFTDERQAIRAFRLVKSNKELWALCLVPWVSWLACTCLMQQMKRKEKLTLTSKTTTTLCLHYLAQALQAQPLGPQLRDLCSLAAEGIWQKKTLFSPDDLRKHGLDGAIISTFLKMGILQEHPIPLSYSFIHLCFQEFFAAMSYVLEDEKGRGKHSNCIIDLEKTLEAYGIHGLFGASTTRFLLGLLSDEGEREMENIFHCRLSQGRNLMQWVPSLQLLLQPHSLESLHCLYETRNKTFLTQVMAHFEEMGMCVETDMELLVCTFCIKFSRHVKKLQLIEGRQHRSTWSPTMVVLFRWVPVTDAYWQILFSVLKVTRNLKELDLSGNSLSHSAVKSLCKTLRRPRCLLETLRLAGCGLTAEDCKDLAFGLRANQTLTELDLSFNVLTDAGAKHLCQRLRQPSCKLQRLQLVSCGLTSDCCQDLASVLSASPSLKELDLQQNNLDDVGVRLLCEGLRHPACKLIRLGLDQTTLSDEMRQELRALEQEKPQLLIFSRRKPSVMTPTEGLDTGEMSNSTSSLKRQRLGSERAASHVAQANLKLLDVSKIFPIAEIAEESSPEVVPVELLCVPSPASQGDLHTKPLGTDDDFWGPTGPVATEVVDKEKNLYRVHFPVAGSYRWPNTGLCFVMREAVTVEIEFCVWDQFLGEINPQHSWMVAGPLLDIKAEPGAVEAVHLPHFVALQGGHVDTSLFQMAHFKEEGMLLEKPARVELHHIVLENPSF
Sequence of NACHT, LRR and PYD domains-containing protein 1 (Q9C000 1213-1473 limits assumed): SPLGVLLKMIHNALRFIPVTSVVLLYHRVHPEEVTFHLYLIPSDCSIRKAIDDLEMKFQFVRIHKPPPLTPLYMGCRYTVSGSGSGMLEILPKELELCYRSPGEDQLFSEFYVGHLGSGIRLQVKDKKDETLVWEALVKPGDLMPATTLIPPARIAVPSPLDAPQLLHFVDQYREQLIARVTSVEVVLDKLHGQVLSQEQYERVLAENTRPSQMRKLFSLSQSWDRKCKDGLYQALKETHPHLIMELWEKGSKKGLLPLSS

## O=C(c1ccc(COc2ccccc2Br)o1)N1N=C(C(F)F)CC1(O)C(F)F (stereo not given)
Troponin, cardiac muscle
  EC50: > 71.5 µM (inactive)

## COc1cccc2c1C(=O)c1c(O)c3c(c(O)c1C2=O)C[C@](O)(C(C)=O)C[C@H]3O[C@@H]1C[C@@H](N)[C@@H](O)[C@@H](C)O1
Paired box protein Pax-8
  AC50: 2.84 µM (active)
HeLa
  AC50: 3.2 µM (active)
[1]
  EC50: 0.102 µM (active)
[2]
  EC50: < 0.1 µM (active)
[3]
  EC50: < 0.1 µM (active)
Protein S100-A4
  AC50: 0.29 µM (active)
ORF 73
  AC50: 3.01 µM (active)

## CCc1nnc(NC(=O)CSc2ccc(-c3ccco3)nn2)s1
[4]
  IC50: 64.4 µM (active)
[5]
  IC50: 9.04 µM (active)

## COc1ccccc1N1CCN(CCCCCCOc2ccc(F)cc2)CC1
[6]
  IC50: 9.66 µM (active)
Saccharomyces cerevisiae
  IC50: 13.2 µM (active)

## CCOc1ccc2cc(C(=O)c3ccccc3)c(=O)oc2c1
[7]
  IC50: > 100 µM (inactive)
[8]
  IC50: > 100 µM (not active)

## O=C1C=C(O)c2cccc3cccc1c23
[9]
  IC50: 13.1 µM (active)
[10]
  IC50: 34.5 µM (inactive)
[11]
  IC50: 33.1 µM (inactive)
Protein Rev
  IC50: 13.9 µM (not active)
[12]
  IC50: 8.55 µM (active)
[13]
  IC50: 6.13 µM (active)
